# From US8968700B2, “Imaging of protease activity in live cells using activity based probes” (The Board of Trustees of the Leland Stanford Junior …, priority 2005, dated 2015)
# Assays:
# bovine cathepsin B [1] = target: T1, bovine cathepsin B (Bos taurus, UniProt P07688); test: Kinetics of inhibition, progress curve method (kass); format: biochemical; settings: bovine cathepsin B 1 nM; substrate Z-RR-AMC 10 μM; pseudo-first order
# Method: (§1) The kinetics of inhibition was determined by progress curve method under pseudo-first order conditions with at least 10-fold molar excess of inhibitor. Recorded progress curves were analyzed by non-linear regression according to the following equation (Ref 36).
# (§2) [P]=vz(1−e^−k·t)/k where [P] is the product, vz is the velocity at time zero and k is the pseudo first order rate constant. Apparent rate constant (kapp) was determined from the slope of plot k versus [I]. Due to irreversible and competitive mechanism of inhibition, kapp was converted to the association constant (kass) using the equation below: kass=kapp(1+[S]/KM)
# (§3) Activity of human cathepsin L was measured using the fluorogenic substrate Z-FRAMC37 (Bachem, USA) (Km=7.1 μM) and cathepsin B was assayed against the fluorogenic substrate Z-RR-AMC38 (Bachem, USA) (Km=114 μM). Concentration of substrates during the measurement was 10 μM. Cathepsins B and L (1 nM final concentrations) were incubated with inhibitor concentrations, ranging from 10 to 2000 nM, in the presence of 10 μM of appropriate substrate. Total volume during the measurement was 100 μl. Increase of fluorescence (370 nm excitation, […] emission) was continuously monitored for 30 minutes by Spectramax M5 spectrofluorimeter.
# (§4) (Molecular Devices, USA) and inhibition curves were recorded. DMSO concentration during all measurements was 3.5%.
# human cathepsin L [2] = target: T2, human cathepsin L (Homo sapiens, UniProt P07711); test: as above; format: biochemical; settings: human cathepsin L 1 nM; substrate Z-FR-AMC 10 μM; pseudo-first order
# Method: as §1, §2, §3, §4
# MDA-MB 231 tumors = test: In vivo imaging of cysteine protease activity in tumor-bearing mice (IVIS 200); design: species or system mouse; settings: tail vein injection
# Method: Three weeks prior to imaging, MDA-MB 435 or MDA-MB 231 cells (3×10^6 cell per site) were subcutaneously injected into the back left and right side of a Balb-c nude mouse. As is known in the literature, MDA-MB-435, expresses ALP56 (aspartic-like protease 56 kDa), which has homology to aspartic proteases, such as cathepsin D. Similarly, a trypsin-like protease secreted from MDA MB-231 cells can promote cell migration through autocrine activation of PAR-2. GB123 (1 μg) dissolved in DMSO/PBS was injected via the tail vein. Fluorescent images of living mice taken using an IVIS 200 imaging system equipped with a Cy5.5 filter at various time points after GB123 injection show localization of the probe to a tumor site. […] Labeling of active cysteine proteases in cell lines used to generate the tumors was carried out on SDS-PAGE. Intact monolayers of MDA MB-231 or MDA MB-435 cells were either pre-treated with the general papain family protease inhibitor JPM-OEt (50 μM) or with control DMSO (0.1%) for one hour and labeled by addition of GB123 (1 μM) to culture media for four hours. Crude detergent lysates were normalized for total protein, separated by SDS-PAGE, and visualized by scanning of the gel with a Typhoon flatbed laser scanner. […] Plotted values are expressed as percentage of fluorescence measured relative to the signal observed at two hours post injection of probe.
# [3] = test system: MDA MB-231 or MDA MB-435 cells; test: Labeling of active cysteine proteases in intact monolayers of tumor cell lines, SDS-PAGE; format: cell-based; settings: 1 μM, four hours
# Method: GB123 (1 μg) dissolved in DMSO/PBS was injected via the tail vein. Fluorescent images of living mice taken using an IVIS 200 imaging system equipped with a Cy5.5 filter at various time points after GB123 injection show localization of the probe to a tumor site. […] Labeling of active cysteine proteases in cell lines used to generate the tumors was carried out on SDS-PAGE. Intact monolayers of MDA MB-231 or MDA MB-435 cells were either pre-treated with the general papain family protease inhibitor JPM-OEt (50 μM) or with control DMSO (0.1%) for one hour and labeled by addition of GB123 (1 μM) to culture media for four hours. Crude detergent lysates were normalized for total protein, separated by SDS-PAGE, and visualized by scanning of the gel with a Typhoon flatbed laser scanner. […] All of these specific activities were sensitive to pre-treatment with the general inhibitor JPM-OEt. […] Plotted values are expressed as percentage of fluorescence measured relative to the signal observed at two hours post injection of probe.
# [4] = test system: MDA-MB 231 or C2C12/ras tumors; test: In vivo labeling of live mice with active probe and control inactive probe; design: species or system mouse
# Method: Two to four weeks prior to imaging MDA-MB 231 or C2C12/ras cells (a myoblast cell line wherein ras blocks differentiation) at 2×10^6 cell per spot were injected subcutaneous to the back of Balb-c nude mice.
# Mice bearing tumors of similar size were injected intravenous via the tail vein with a DMSO/PBS solution of GB123 or GB125 (0.8-1.1 μg/gr mice). DMSO/PBS was locally injected directly into tumors in indicated mice, 15 minutes prior to probe injection. Fluorescent intensity as photons per second per centimeter square per steradian (p/s/cm^2/sr) was recorded from living mice, (data not shown). Images were taken at various time points (e.g., 1 min., 5 hrs. and 22 hrs.) after probe injection using an IVIS 200 imaging system equipped with a Cy5.5 filter.
# [5] = test system: protease species in tumor lysates; test: Biochemical analysis of in vivo labeled tumors, SDS-PAGE of lysates; design: species or system mouse; settings: FIG. 6a
# From the text: Tumors from mice described in Example 7 were lysed in a detergent buffer. Crude lysates were normalized for total protein, separated by SDS-PAGE, and visualized by scanning of the gel with a Typhoon flatbed laser scanner, fluorescent images of corresponding mice are shown below gel images, where spotted areas indicate fluorescent readings, as obtained in Example 7. […] Lysates from a C2C12/ras tumor locally injected with DMSO/PBS were immuno precipitated using anti cathepsin B or cathepsin L antibodies as indicated. Samples were separated by SDS-PAGE, and visualized by scanning of the gel with a Typhoon flatbed laser scanner, as shown in FIG. 6b. The antibodies precipitated cat B and cat L complexes, indicating specific labeling of these proteases.
# tumor tissues = test: Ex vivo imaging of tumor tissue cryo-sections; format: in vivo, mouse; settings: 24 hours after probe injection, Cy5 channel
# Method: Tumors from mice injected with either GB123 or GB125 were extracted 24 hours after probe injection and molded in OCT placed in tert-butanol cooled with liquid nitrogen. Cryo-sections (10 μm) of tumors were mounted with Fluoromount and imaged using a Zeiss 200M fluorescent microscope using a 40× lens and a Cy5 filter.
# bovine cathepsin B [6] = target: T1, bovine cathepsin B; test: Recombinant cathepsin labeling, SDS-PAGE fluorescent scan; format: biochemical; settings: labeling by GB111 and GB117
# Method: (§5) 0.7 μg recombinant human Cathepsin L (a generous gift from Dr. V. Turk Jozef, Stefan institute Slovenia) or 0.4 μg bovine Cathepsin B (Sigma) in reaction buffer (50 mM acetate, 2 mM DTT and 5 mM MgCl2, pH 5.5) were treated with 25 μM JPM-OEt for 30 min (indicated samples) at room temperature. Increasing concentrations of GB111, GB117, were added to appropriate samples for 30 min. The reaction was stopped by adding sample buffer X4 (40% glycerol, 0.2M Tris/HCl 6.8, 20% β-mercaptoethanol, 12% SDS and 0.4 mg/ml bromophenol blue). Half of the sample was separated on a 12% SDS gel and scanned by a Typhoon laser flatbed scanner at 532/580.
# NIH-3T3 cells = test: Imaging protease activity in live cells, fluorescence microscopy; format: cell-based, mouse; settings: JPM-OEt 50 μM, 1 hour
# Method: In these experiments (data not shown), cultures of NIH-3T3 cells were either pre-treated with the general papain family protease inhibitor JPM-OEt (50 μM) or with control DMSO (0.1%) for 1 hour and labeled by addition of GB111 or GB117 (1 μM) to growth media for 4-5 hours. The acidotropic lysosomal marker LysoTracker (which produces a green color) was added and cells were imaged using an inverted fluorescent microscope (Nikon). Cells were also treated and analyzed after being washed for 3 hours in growth media containing JPM-OEt (50 μM) or DMSO (0.1%) prior to imaging. As a result, red fluorescence—indicating protease activity, green fluorescence—indicating lysosomal compartments, and yellow fluorescence resulting from overlap in green and red signals was observed.
# NIH 3T3 cells (165,000 cells/well) were seeded on glass cover slips in six-well tissue culture plates containing growth medium 1 day before treatment. Cells were either pretreated with the general papain family protease inhibitor JPM-OEt (50 μM) or with control DMSO (0.1%) for 1 hour. Cells were labeled by addition of GB111 or GB117 (1 μM) to growth media at pH 7.4 for 4-5 hours. Cells were transferred to growth media without phenol red. LysoTracker (50 nM final concentration) was added minutes before cells were imaged using an inverted fluorescent microscope (Nikon Diaphot-300 microscope with the 60 (NA 1.4) objective). […]
# MCF-10A cells = test: Imaging in three-dimensional cell culture on Cultrex, confocal microscopy; format: cell-based; settings: JPM-OEt 50 μM
# Method: In these experiments, reconstituted basement membrane, Cultrex (Trevigen) was mixed with 1 μM GB111 or GB117 with or without JPM-OEt (50 μM). MCF-10A cells were grown three-dimensional cultures on Cultrex containing probes with or without inhibitor for 3 days then imaged by confocal microscopy using a water immersion lens (Zeiss).
# MCF-10A cells were grown in 3D culture on reconstituted basement membrane extracted from an EHS mouse sarcoma (Cultrex from Trevigen) as previously described 35. GB117 or GB111 was added to Cultrex (1 μM final concentration) upon cell seeding and day 3 structures were imaged as described below. Day 8 structures grown Cultrex without probes were treated with 1 μM GB111 for 3 hours in assay media (culture media with 2% horse serum and 5 ng/mL EGF). Cells were washed overnight in assay media, fixed and imaged as described below.
# [7] = test system: endogenous cathepsin activity; test: In vivo whole animal imaging with spectral imager; design: species or system mouse; settings: 100 mg/kg IP 2 hours prior to GB117
# From the text: Photographs illustrating fluorescence imaging of endogenous cathepsin activity in live mice using the quenched activity-based probe GB117 were obtained with the CR1-Maestro™ Spectral imager, and comparisons were made between mice (a) with no probe, (b) with GB117 and (c) with GB117 plus the general cathepsin inhibitor JPM-OEt.
# Areas of more intense labeling in the center of the animal (likely labeling of the liver, an organ with high cathepsin activity) were seen.
# This work utilized a spectral imager (CRI Maestro) at the small animal imaging facility at Stanford. This new technology makes it possible to acquire the entire spectrum of light emission. Following spectral acquisition, the wavelengths specific to the injected probe can be defined, and autofluorescence subtracted. […] Techniques for spectral imaging in connection with multiple chromosome labels (“chromosome painting”) are known and may be adapted for use in vivo. See U.S. Pat. Nos. 5,936,731 and 6,690,817. A spectral imager is capable of collecting spatial (imaging) information as well as spectral information at every pixel in the image. This 3 dimensional data set enables the detailed study of both absorptive and fluorescent, histological and cellular material. […]
# human cathepsin L [8] = target: T2, human cathepsin L; test: Recombinant cathepsin labeling, SDS-PAGE fluorescent scan; format: biochemical; design: gift from Dr. V. Turk, Jozef Stefan Institute, Slovenia; settings: labeling by GB111 and GB117
# Method: as §5
# T2 sequence (P07711 114-333): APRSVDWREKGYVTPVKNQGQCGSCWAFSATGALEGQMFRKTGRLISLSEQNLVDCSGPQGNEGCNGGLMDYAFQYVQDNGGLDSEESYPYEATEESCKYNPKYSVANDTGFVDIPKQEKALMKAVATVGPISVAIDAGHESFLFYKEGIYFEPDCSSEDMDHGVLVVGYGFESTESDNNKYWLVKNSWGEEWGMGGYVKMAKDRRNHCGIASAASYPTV
molecule,measurement,setting,value
Cc1cccc(C)c1C(=O)OCC(=O)[C@H](CCCCN)NC(=O)[C@H](Cc1ccccc1)NC(=O)OCc1ccccc1 [GB111-NH2],kass (inhibition rate constant),bovine cathepsin B [1],38500 ± 7700 M^−1s^1
same,kass (inhibition rate constant),human cathepsin L [2],296400 ± 18100 M^−1s^1
CCN1C(=CC=CC=CC2=[N+](CCCCCC(=O)NCCCC[C@H](NC(=O)[C@H](Cc3ccccc3)NC(=O)OCc3ccccc3)C(=O)COC(=O)c3c(C)cccc3C)c3ccc(S(=O)(=O)O)cc3C2(C)C)C(C)(C)c2cc(S(=O)(=O)O)ccc21 [GB123],fluorescent signal in tumor,MDA-MB 231 tumors,accumulation of fluorescent signal was observed over time
same,labeling of cysteine protease activities in cell lines,[3],increased labeling of a number of cysteine protease activities in MDA-MB 231 relative to the MDA-MB 435 cells
same,fluorescence after 1 min.,[4]; MDA-MB-231 injected mice,showed fluorescence
same,retention of observable signal,"[4]; intravenous via tail vein, 0.8-1.1 μg/gr",at least 22 hrs
same,fluorescence of labeled bands in tumor lysates,[5],significant fluorescence
same,fluorescent signal in tumor cryo-sections,tumor tissues,accumulation of the specific fluorescent signal
JPM-OEt,effect of inhibitor pre-treatment on probe labeling,bovine cathepsin B [6],specifically competed
same,effect of inhibitor pre-treatment on GB117 labeling pattern,NIH-3T3 cells,blocked
same,effect of inhibitor on GB117 staining in 3D culture,MCF-10A cells,completely blocked
same,effect of inhibitor pre-treatment on GB117 signal in live mouse,[7],significantly reduced fluorescent signal in the entire animal
same,effect of inhibitor pre-treatment on probe labeling,human cathepsin L [8],specifically competed
